Assay results published in the supplement of paper PMC10307832.

The cell lines below were run with Cn1nnc2c(C(N)=O)ncn2c1=O [Temozolomide] + COc1cccc2cc(-c3nc([C@H]4CC[C@H](C(=O)O)CC4)n4ncnc(N)c34)[nH]c12 [OSI-027] (partner 0.5 µM) (assay: relative viability (nuclei count vs DMSO), 5 days (fraction); higher = more cells survive). Settings: first compound 0.2 µM.
Outline: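 Relative viability equals treated-well nuclei counts divided by vehicle-well nuclei counts. Counts came from 4× images of lung cancer cell lines grown in 1536-well plates for 5 days after pin-tool dosing on the day after seeding. Dosing used one drug alone or a fixed anchor-drug dose plus five library-drug doses (not always all listed) in √10 steps, and values are medians of duplicate plates.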
NCI-H2228 showed a relative viability of 0.557. For NCI-H2347, the relative viability was 0.338. NCI-H2405 showed a relative viability of 0.569. In the case of NCI-H3122, the relative viability is reported as 0.404. PC-3 [JPC-3] gave a relative viability of 0.738. Work on PC-14 yielded a relative viability of 1.12. With RERF-LC-KJ the relative viability was 0.495. Work on SK-LU-1 yielded a relative viability of 0.408.

Same assay, conditions: first compound 0.6325 µM
For NCI-H322M, the relative viability was 0.525. NCI-H358 showed a relative viability of 0.795. Work on NCI-H460 yielded a relative viability of 0.688. Cell Line NCI-H520 has a relative viability of 0.298. NCI-H596 was tested, and the relative viability was 0.76. With NCI-H647 the relative viability was 0.661. NCI-H650 was tested, and the relative viability was 0.535. Work on NCI-H661 yielded a relative viability of 0.759. For NCI-H727, the relative viability was 0.779. In the case of NCI-H838, the relative viability is reported as 0.485. Work on NCI-H1355 yielded a relative viability of 0.421. Cell Line NCI-H1437 has a relative viability of 0.877. For NCI-H1563, the relative viability was 0.817. Cell Line NCI-H1651 has a relative viability of 0.727. With NCI-H1666 the relative viability was 0.822. NCI-H1734 gave a relative viability of 0.562. NCI-H1755 gave a relative viability of 0.758. Work on NCI-H1792 yielded a relative viability of 0.739. NCI-H1915 showed a relative viability of 0.614. In the case of NCI-H1944, the relative viability is reported as 0.378. With NCI-H1975 the relative viability was 0.683. For NCI-H1993, the relative viability was 0.556. In the case of NCI-H2009, the relative viability is reported as 0.597. For NCI-H2023, the relative viability was 0.39. For NCI-H2085, the relative viability was 0.886. With NCI-H2087 the relative viability was 0.565. For NCI-H2126, the relative viability was 0.781. NCI-H2228 was tested, and the relative viability was 0.56. With NCI-H2347 the relative viability was 0.428. Cell Line NCI-H2405 has a relative viability of 0.618. For NCI-H3122, the relative viability was 0.995. In the case of PC-3 [JPC-3], the relative viability is reported as 0.78. With PC-14 the relative viability was 0.811. RERF-LC-KJ showed a relative viability of 0.6. For SK-LU-1, the relative viability was 0.341.

Same assay, conditions: first compound 2 µM
For NCI-H322M, the relative viability was 0.569. Work on NCI-H358 yielded a relative viability of 0.697. For NCI-H460, the relative viability was 0.761. NCI-H520 showed a relative viability of 0.255. Work on NCI-H596 yielded a relative viability of 0.692. Work on NCI-H647 yielded a relative viability of 0.776. NCI-H650 showed a relative viability of 0.584. For NCI-H661, the relative viability was 0.737. NCI-H727 gave a relative viability of 0.712. In the case of NCI-H838, the relative viability is reported as 0.397. With NCI-H1355 the relative viability was 0.455. NCI-H1437 was tested, and the relative viability was 0.952. In the case of NCI-H1563, the relative viability is reported as 0.77. NCI-H1651 gave a relative viability of 0.657. NCI-H1666 showed a relative viability of 0.789. NCI-H1734 gave a relative viability of 0.667. Work on NCI-H1755 yielded a relative viability of 0.743. Work on NCI-H1792 yielded a relative viability of 0.689. Cell Line NCI-H1915 has a relative viability of 0.602. In the case of NCI-H1944, the relative viability is reported as 0.474. In the case of NCI-H1975, the relative viability is reported as 0.852. NCI-H1993 showed a relative viability of 0.536. NCI-H2009 was tested, and the relative viability was 0.682. In the case of NCI-H2023, the relative viability is reported as 0.475. NCI-H2085 was tested, and the relative viability was 1.05. Cell Line NCI-H2087 has a relative viability of 0.634. NCI-H2126 gave a relative viability of 0.85. With NCI-H2228 the relative viability was 0.602. NCI-H2347 was tested, and the relative viability was 0.501. With NCI-H2405 the relative viability was 0.646. In the case of NCI-H3122, the relative viability is reported as 1.33. In the case of PC-3 [JPC-3], the relative viability is reported as 0.843. PC-14 was tested, and the relative viability was 0.855. With RERF-LC-KJ the relative viability was 0.597. With SK-LU-1 the relative viability was 0.334.

Same assay, conditions: first compound 6.325 µM
In the case of NCI-H322M, the relative viability is reported as 0.54. For NCI-H358, the relative viability was 0.689. For NCI-H460, the relative viability was 0.682. With NCI-H520 the relative viability was 0.271. Work on NCI-H596 yielded a relative viability of 0.691. NCI-H647 was tested, and the relative viability was 0.431. NCI-H650 showed a relative viability of 0.506. Cell Line NCI-H661 has a relative viability of 0.716. NCI-H727 showed a relative viability of 0.493. In the case of NCI-H838, the relative viability is reported as 0.419. NCI-H1355 gave a relative viability of 0.382. Work on NCI-H1437 yielded a relative viability of 0.922. With NCI-H1563 the relative viability was 0.789. Cell Line NCI-H1651 has a relative viability of 0.636. NCI-H1666 gave a relative viability of 0.65. For NCI-H1734, the relative viability was 0.578. NCI-H1755 showed a relative viability of 0.673. Cell Line NCI-H1792 has a relative viability of 0.681. NCI-H1915 showed a relative viability of 0.388. For NCI-H1944, the relative viability was 0.377. Cell Line NCI-H1975 has a relative viability of 0.731. Cell Line NCI-H1993 has a relative viability of 0.535. In the case of NCI-H2009, the relative viability is reported as 0.699. In the case of NCI-H2023, the relative viability is reported as 0.329. NCI-H2085 gave a relative viability of 0.734. Work on NCI-H2087 yielded a relative viability of 0.464. NCI-H2126 was tested, and the relative viability was 1.12. In the case of NCI-H2228, the relative viability is reported as 0.583. For NCI-H2347, the relative viability was 0.376. Work on NCI-H2405 yielded a relative viability of 0.619. Work on NCI-H3122 yielded a relative viability of 0.949. PC-3 [JPC-3] was tested, and the relative viability was 0.749. With PC-14 the relative viability was 0.741. For RERF-LC-KJ, the relative viability was 0.53. SK-LU-1 gave a relative viability of 0.24.

Same assay, conditions: first compound 20 µM
For NCI-H322M, the relative viability was 0.433. With NCI-H358 the relative viability was 0.583. With NCI-H460 the relative viability was 0.656. For NCI-H520, the relative viability was 0.239. With NCI-H596 the relative viability was 0.835. Work on NCI-H647 yielded a relative viability of 0.185. NCI-H650 showed a relative viability of 0.534. For NCI-H661, the relative viability was 0.55. In the case of NCI-H727, the relative viability is reported as 0.534. NCI-H838 was tested, and the relative viability was 0.411. NCI-H1355 gave a relative viability of 0.352. Cell Line NCI-H1437 has a relative viability of 0.906. NCI-H1563 gave a relative viability of 0.796. Cell Line NCI-H1651 has a relative viability of 0.636. Work on NCI-H1666 yielded a relative viability of 0.672. Work on NCI-H1734 yielded a relative viability of 0.649. With NCI-H1755 the relative viability was 0.637. In the case of NCI-H1792, the relative viability is reported as 0.736. NCI-H1915 was tested, and the relative viability was 0.326. In the case of NCI-H1944, the relative viability is reported as 0.382. Work on NCI-H1975 yielded a relative viability of 0.804. Work on NCI-H1993 yielded a relative viability of 0.621. Work on NCI-H2009 yielded a relative viability of 0.698. NCI-H2023 was tested, and the relative viability was 0.413. In the case of NCI-H2085, the relative viability is reported as 0.577. For NCI-H2087, the relative viability was 0.612. Cell Line NCI-H2126 has a relative viability of 0.717. NCI-H2228 showed a relative viability of 0.727. NCI-H2347 was tested, and the relative viability was 0.432. Cell Line NCI-H2405 has a relative viability of 0.654. Cell Line NCI-H3122 has a relative viability of 1.03. Cell Line PC-3 [JPC-3] has a relative viability of 0.269. In the case of PC-14, the relative viability is reported as 0.159. With RERF-LC-KJ the relative viability was 0.554. SK-LU-1 showed a relative viability of 0.272.
